Tests used:
[1] = biological target: HA H1 A/California/07/09 (Influenza A virus (A/California/07/2009(H1N1)), UniProt C3W5X2); assay: biochemical; details: Competition binding (AlphaLISA), pIC50 H1 A/California/07/09
[2] = biological target: HA H1 A/New Caledonia/20/99 (Influenza A virus (A/New Caledonia/20/1999(H1N1)), UniProt Q6WG00); assay: biochemical; details: Competition binding (AlphaLISA), pIC50 H1 A/New Caledonia/20/99
[3] = biological target: HA H5 A/Vietnam/1203/04 (Influenza A virus (A/Vietnam/1203/2004(H5N1)), UniProt Q5EP31); assay: biochemical; details: Competition binding (AlphaLISA), pIC50 H5 A/Vietnam/1203/04
[4] = test system: H1N1 A/California/07/09; assay: microbe, parasite or virus in culture; type: cell-based, influenza A virus; details: Influenza A virus, H1N1, MDCK, 96 h, read-out: Virus neutralization assay (VNA), pEC50 H1N1 A/California/07/09 (converted)
[5] = test system: H1N1 A/New Caledonia/20/99; assay: microbe, parasite or virus in culture; type: cell-based, influenza A virus; details: Influenza A virus, H1N1, MDCK, 96 h, read-out: Virus neutralization assay (VNA), pEC50 H1N1 A/New Caledonia/20/99 (converted)
[6] = test system: H5N1 A/Vietnam/1203/04; assay: microbe, parasite or virus in culture; type: cell-based, influenza A virus; details: Influenza A virus, H5N1, MDCK, 96 h, read-out: Virus neutralization assay (VNA), pEC50 H5N1 A/Vietnam/1203/04, MDCK cells, 96 h, CPE by ATPlite (converted); average of repeats
[7] = in vitro; details: dog, Cytotoxicity (pCC50) MDCK

| Structure (SMILES) | IC50 [1] | IC50 [2] | IC50 [3] | EC50 [4] | EC50 [5] | EC50 [6] | CC50 [7] |
| --- | --- | --- | --- | --- | --- | --- | --- |
| COc1ccc2nc(-c3cccc(C(=O)N4CCN(C(Cc5nnco5)c5ccccc5)CC4)c3)sc2c1 (stereo not drawn) [Example 108] | 1.58 µM | 0.501 µM | 25.1 µM | 5.01 µM | 1 µM | > 50.1 µM | > 50.1 µM |
| COc1ccc2nc(-c3cccc(C(=O)N4CCN(C(c5ccccc5)c5ncco5)CC4)c3)sc2c1 (stereo not drawn) [Example 74] | 0.2 µM | 0.0794 µM | 2 µM | 1 µM | 0.631 µM | 6.31 µM | > 50.1 µM |
| COC(=O)C(c1ccccc1)N1CCN(C(=O)c2ccnc(-c3nc4cc(C(F)(F)F)ccc4o3)c2)CC1 (stereo not drawn) [Example 119] | 0.158 µM | 0.158 µM | 2 µM | 1 µM | 1.58 µM | 25.1 µM | 10 µM |
| Cc1nnc(C(c2ccccc2)N2CCN(C(=O)c3cc(-c4nc5cc(OC(F)(F)F)ccc5o4)ccn3)CC2)s1 (stereo not drawn) [Example 49] | 0.251 µM | 0.2 µM | 3.98 µM | 0.501 µM | 0.316 µM | 31.6 µM | 15.8 µM |
| Cc1nnc(C(c2ccccc2)N2CCN(C(=O)c3cccc(-c4nc5cc(NS(C)(=O)=O)ccc5o4)c3)CC2)o1 (stereo not drawn) [Example 73] | 0.0158 µM | 0.0251 µM | 1.26 µM | 0.794 µM | 0.794 µM | > 50.1 µM | > 50.1 µM |
| CNC(=O)C(c1ccccc1)N1CCN(C(=O)c2cccc(-c3nc4ccc(OC)cc4s3)c2)CC1 (stereo not drawn) [Example 103] | 0.2 µM | 0.126 µM | 1 µM | 2.51 µM | 1 µM | 15.8 µM | 31.6 µM |
| Cc1coc(C(c2ccccc2)N2CCN(C(=O)c3cc(-c4nc5cc(OC(F)(F)F)ccc5o4)ccn3)CC2)n1 (stereo not drawn) [Example 18] | 0.0398 µM | 0.02 µM | 0.398 µM | 0.2 µM | 0.0794 µM | 20 µM | > 50.1 µM |
| COC(=O)C(C)(c1ccccc1)N1CCN(C(=O)c2cccc(-c3nc4ccc(OC)cc4s3)c2)CC1 (stereo not drawn) [Example 94] | 0.0794 µM | 0.0501 µM | 0.631 µM | 0.316 µM | 1 µM | 7.94 µM | 2.51 µM |
| COc1ccc2nc(-c3cccc(C(=O)N4CCN(C(c5ccccc5)c5nnn(C)n5)CC4)c3)sc2c1 (stereo not drawn) [Example 72] | 0.2 µM | 0.126 µM | 1.58 µM | 0.794 µM | 0.631 µM | 39.8 µM | 50.1 µM |
| COC(=O)C(c1ccccc1)N1CCN(C(=O)c2cccc(-c3nc4ccc(OC)cc4[nH]3)c2)CC1 (stereo not drawn) [Example 121] | 0.2 µM | 0.126 µM | 1.58 µM | 3.16 µM | 1.58 µM | 39.8 µM | 7.94 µM |
| COC(=O)[C@H](c1ccccc1)N1CCN(C(=O)c2cccc(-c3nc4cc(OC)ccc4o3)c2)CC1 [Example 100] | 0.501 µM | 0.316 µM | 25.1 µM | 2 µM | 1 µM | 25.1 µM | > 50.1 µM |
| COC(=O)C(c1ccccc1)N1CCN(C(=O)c2cccc(-c3nc4cc(Cl)ccc4o3)c2)CC1 (stereo not drawn) [Example 59] | 0.0631 µM | 0.0631 µM | 2 µM | 0.398 µM | 0.501 µM | 20 µM | > 50.1 µM |
| CC(=O)Nc1ccc2oc(-c3cccc(C(=O)N4CCN(C(c5ccccc5)c5n[nH]c(C)n5)CC4)c3)nc2c1 (stereo not drawn) [Example 6] | 0.02 µM | 0.01 µM | 0.501 µM | 0.02 µM | 0.00631 µM | 12.6 µM | > 50.1 µM |
| Cc1nnc(C(c2ccccc2)N2CCN(C(=O)c3cccc(-c4nc5cc(F)ccc5o4)c3)CC2)o1 (stereo not drawn) [Example 47] | 0.0794 µM | 0.0794 µM | 10 µM | 0.398 µM | 0.316 µM | 15.8 µM | 31.6 µM |
| COC(=O)[C@@H](c1ccccc1)N1CCN(C(=O)c2cccc(-c3nc4cc(C(F)(F)F)ccc4o3)c2)[C@H](CC(N)=O)C1 [Example 67] | 0.0501 µM | 0.0501 µM | 3.16 µM | 0.794 µM | 0.631 µM | 31.6 µM | 39.8 µM |
| COC(=O)C(c1ccccc1)N1CCN(C(=O)C2CCCN(c3nc4ccc(OC)cc4s3)C2)CC1 (stereo not drawn) [Example 115] | 0.251 µM | 0.316 µM | 7.94 µM | 2 µM | 1.26 µM | > 50.1 µM | 3.98 µM |
| COC(=O)C(c1ccccc1)N1CCN(C(=O)c2cccc(-c3nc4cc(O)ccc4o3)c2)CC1 (stereo not drawn) [Example 30] | 0.0251 µM | 0.0251 µM | 0.631 µM | 0.251 µM | 0.158 µM | 7.94 µM | 25.1 µM |
| COC(=O)C(c1ccccc1)N1CCN(C(=O)c2cccc(-c3nc4cc(OC5CC5)ccc4o3)c2)CC1 (stereo not drawn) [Example 1, Methyl 2-(4-(3-(5-cyclopropoxybenzo[d]oxazol-2-yl)benzoyl)piperazin-1-yl)-2-phenylacetate] | 0.00126 µM | 0.000631 µM | 0.0631 µM | 0.00251 µM | 0.00251 µM | 0.2 µM | > 50.1 µM |
| COc1ccc2nc(-c3cccc(C(=O)N4CCN([C@H](c5ccccc5)c5nnn(C)n5)CC4)c3)sc2c1 [Example 61] | 0.0794 µM | 0.0631 µM | 0.501 µM | 0.631 µM | 0.501 µM | 2 µM | 39.8 µM |
| COC(=O)[C@@H](c1ccccc1)N1CCN(C(=O)c2cccc(-c3nc4cc(C(F)(F)F)ccc4o3)c2)CC1 [Example 26] | 0.0251 µM | 0.02 µM | 0.501 µM | 0.158 µM | 0.158 µM | 7.94 µM | > 50.1 µM |
| COC(=O)[C@@H](c1ccccc1)N1CCN(C(=O)c2cccc(-c3nc4cc(OC)ccc4o3)c2)CC1 [Example 8] | 0.00631 µM | 0.00398 µM | 0.2 µM | 0.0398 µM | 0.0316 µM | 1.26 µM | > 50.1 µM |
| COC(=O)C(c1ccccc1)N1CCN(C(=O)c2cccc(-c3nc4ncccc4o3)c2)CC1 (stereo not drawn) [Example 24] | 0.0631 µM | 0.0398 µM | 3.16 µM | 0.158 µM | 0.126 µM | 12.6 µM | > 50.1 µM |
| O=C(c1cccc(-c2nc3cc(C(F)(F)F)ccc3o2)c1)N1CCN(C(c2ccccc2)c2nnc(C3CNC3)o2)CC1 (stereo not drawn) [Example 92] | 0.126 µM | 0.0794 µM | 3.16 µM | 3.16 µM | 0.794 µM | 10 µM | 10 µM |
| COC(=O)C(c1ccccc1)N1CCN(C(=O)c2cccc(-c3nc4ccccc4o3)c2)CC1 (stereo not drawn) [Example 31] | 0.0316 µM | 0.0251 µM | 1.26 µM | 0.316 µM | 0.158 µM | 7.94 µM | > 50.1 µM |
| COc1ccc2nc(-c3cccc(C(=O)N4CCN(C(c5ccccc5)c5nnco5)CC4)c3)sc2c1 (stereo not drawn) [Example 79] | 0.2 µM | 0.0794 µM | 1.26 µM | 1.58 µM | 0.631 µM | 12.6 µM | > 50.1 µM |
| COc1ccc2nc(-c3cccc(C(=O)N4CCN(C(c5ccccc5)c5noc(C)n5)CC4)c3)sc2c1 (stereo not drawn) [Example 98] | 0.251 µM | 0.126 µM | 2.51 µM | 1.26 µM | 1 µM | 12.6 µM | 12.6 µM |
| COC(=O)C(c1ccccc1)N1CCN(C(=O)c2cccc(NC(=O)c3ccc(OC)cc3)c2)CC1 (stereo not drawn) [Example 81] | 0.2 µM | 0.126 µM | 1.26 µM | 2 µM | 0.631 µM | 10 µM | > 50.1 µM |
| COCC(c1ccccc1)N1CCN(C(=O)c2cccc(-c3nc4ccc(OC)cc4s3)c2)CC1 (stereo not drawn) [Example 99] | 0.251 µM | 0.158 µM | 1.26 µM | 1.58 µM | 1 µM | > 50.1 µM | > 50.1 µM |
| COC(=O)C(c1ccccc1)N1CCN(C(=O)c2cncc(-c3nc4ccc(OC)cc4s3)c2)CC1 (stereo not drawn) [Example 54] | 0.1 µM | 0.0501 µM | 0.398 µM | 1.26 µM | 0.398 µM | 6.31 µM | 50.1 µM |
| Cc1nnc(C(c2ccccc2)N2CCN(C(=O)c3cccc(-c4nc5cc(O)ccc5o4)c3)CC2)o1 (stereo not drawn) [Example 44] | 0.0501 µM | 0.0501 µM | 1.58 µM | 0.398 µM | 0.316 µM | 12.6 µM | 39.8 µM |

Source: patent publication US11040963B2 (priority 2017, dated 2021)
